Test results taken from patent US9642833B2, “Vitamin C and vitamin K, and compositions thereof for treatment of osteolysis or prolongation of prosthetic implant” (IC-MEDTECH CORPORATION, priority 2009, dated 2017).

Test system: HS68 fibroblasts
Assay: MTT cytotoxicity against human dermal fibroblasts
Format: cell-based
Conditions: for CD50: vitamins alone; for VK3 CD50: in combination with Sodium L-Ascorbate

SMILES | VC CD50 (in combination with VK3, ratio of vitamin C to vitamin K3 100, incubation 1 day) | VC CD50 (in combination with VK3, ratio of vitamin C to vitamin K3 100, incubation 2 days) | VC CD50 (in combination with VK3, ratio of vitamin C to vitamin K3 100, incubation 3 days) | VC CD50 (in combination with VK3, ratio of vitamin C to vitamin K3 200, incubation 1 day) | VC CD50 (in combination with VK3, ratio of vitamin C to vitamin K3 200, incubation 2 days) | VC CD50 (in combination with VK3, ratio of vitamin C to vitamin K3 200, incubation 3 days) | CD50 (incubation 1 day) | CD50 (incubation 2 days) | CD50 (incubation 3 days) | VK3 CD50 (ratio of vitamin C to vitamin K3 100, incubation 1 day) | VK3 CD50 (ratio of vitamin C to vitamin K3 100, incubation 2 days) | VK3 CD50 (ratio of vitamin C to vitamin K3 100, incubation 3 days) | VK3 CD50 (ratio of vitamin C to vitamin K3 200, incubation 1 day) | VK3 CD50 (ratio of vitamin C to vitamin K3 200, incubation 2 days) | VK3 CD50 (ratio of vitamin C to vitamin K3 200, incubation 3 days)
O=C1O[C@H]([C@@H](O)CO)C([O-])=C1O.[Na+] [Sodium L-Ascorbate, sodium L-ascorbate] | 458 µM | 471 µM | 471 µM | 466 µM | 467 µM | 397 µM | 1468 µM | 1245 µM | 1185 µM | – | – | – | – | – | –
CC1=CC(=O)c2ccccc2C1=O [VK3, vitamin K3] | – | – | – | – | – | – | 18.7 µM | 19.0 µM | 18.7 µM | 4.7 µM | 4.7 µM | 4.7 µM | 2.3 µM | 2.3 µM | 2.0 µM
